Ends that are not written are not given here.
Key:
[1] = tested on: S. aureus ATCC 29213; assay: MIC, broth dilution; type: cell-based, Staphylococcus aureus; details: Table 5; STIP3 variants, highest concentration 100 μg/mL
In short: (§1)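 Peptides (95% purity) were serially diluted 2-fold and mixed with bacteria diluted to OD 6×10^−4 in cation-adjusted Mueller Hinton broth. Standing cultures were incubated overnight at 37° C. MIC was the lowest peptide concentration with no observed growth.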

[2] = tested on: S. aureus ATCC BAA-1683 (MRSA SCCmec type IV); assay: MIC, broth dilution; type: cell-based, Staphylococcus aureus; details: Table 5; STIP3 variants, highest concentration 100 μg/mL
In short: as §1

[3] = tested on: S. aureus ATCC BAA-2094 (MRSA SCCmec type V); assay: MIC, broth dilution; type: cell-based, Staphylococcus aureus; details: Table 5; STIP3 variants, highest concentration 100 μg/mL
In short: as §1

[4] = tested on: S. aureus ATCC BAA-2313 (MRSA SCCmec type XI); assay: MIC, broth dilution; type: cell-based, Staphylococcus aureus; details: Table 5; STIP3 variants, highest concentration 100 μg/mL
In short: as §1

[5] = tested on: S. aureus ATCC BAA-42 (MRSA SCCmec type VI); assay: MIC, broth dilution; type: cell-based, Staphylococcus aureus; details: Table 5; STIP3 variants, highest concentration 100 μg/mL
In short: as §1

[6] = tested on: S. aureus ATCC BAA-44 (MRSA SCCmec type I); assay: MIC, broth dilution; type: cell-based, Staphylococcus aureus; details: Table 5; STIP3 variants, highest concentration 100 μg/mL
In short: as §1

[7] = tested on: S. aureus bovid isolate (RDM-1); assay: MIC, broth dilution; type: cell-based, Staphylococcus aureus; details: clinical isolate
In short: as §1

[8] = tested on: Mannheimia haemolytica ATCC 33393; assay: MIC, broth dilution; type: cell-based; details: Table 11; highest concentration 25 μg/mL
In short: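 Peptides (95% purity) in 2-fold dilution series were mixed with M. haemolytica diluted to OD 6×10^−4 in cation-adjusted Mueller Hinton broth and incubated standing overnight at 37 °C. MIC was the lowest concentration with no visible growth.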

[9] = Circular dichroism spectroscopy; type: physicochemical; details: CD, 50% (v/v) TFE
In short: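 Secondary structure of peptides dissolved in water at 0.3–0.5 mg/mL was assessed by CD. Spectra were recorded from 180 to 260 nm at room temperature in a 0.1 cm quartz cuvette; water and 50% (v/v) TFE conditions were compared.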

[10] = tested on: Klebsiella pneumoniae; assay: SYTOX Green membrane integrity assay; type: cell-based; details: 25 μg/mL; resistant strain
[11] = tested on: MRSA ATCC 33592; assay: Three-dimensional NHEK skin model of MRSA infection and treatment; type: cell-based, Staphylococcus aureus
Procedure: To begin to assess the potential utility of STIP3-29 as a topical antimicrobial agent, the ability of the peptide to control MRSA infections of three-dimensional epidermal skin model prepared from normal, human-derived epidermal keratinocytes (NHEK) in vitro was evaluated. The multilayered and highly differentiated tissue was colonized with MRSA 33952 through a 4 h exposure to 5×10^5 CFU before removing non-adherent cells. It was observed that ˜7×10^3 CFU (−1%) of the MRSA cells colonized the tissues, and that the population expanded by 4-log units in a 16 h period (FIG. 6A). […] Amidation of the C-terminus is correlated with an increase in red blood cell lysis, observed by comparing of STIP3-1 to STIP3-28 and STIP3-3 to STIP3-29 whereas the inclusion of D-amino acids reduced the hemolytic activity.
Three-dimensional tissue infection and treatment. 3D EpiDerm skin tissues (MatTek EPI-200-AFAB; antifungal & antibiotic-free; 9 mm) contained within a plastic insert lined with a permeable 0.4 μm membrane were transferred to a 12 well plate containing dye- and antibiotic assay medium (600 μl per well). […] The number of colonies on each plated were counted and an average CFU/mL was determined for treated and untreated samples. […]

Q: For “TVGGLVKWILKTVKKFA-NH2 [STIP3-29, TVGGLVKWILKTVKKFA-NH2]”, which “MIC S. aureus ATCC 29213” value [1] is on record?
A: 12.5 µg/mL

Q: And the “MIC S. aureus ATCC BAA 1683 (IV)” value [2]?
A: 6.25 µg/mL

Q: And the “MIC S. aureus ATCC BAA 2094 (V)” value [3]?
A: 6.25 µg/mL

Q: What about the “MIC S. aureus ATCC BAA 2313 (XI)” value [4] of the same substance?
A: 6.25 µg/mL

Q: What about the “MIC S. aureus ATCC BAA 42 (VI)” value [5] of the same substance?
A: 6.25 µg/mL

Q: And the “MIC S. aureus ATCC BAA 44 (I)” value [6]?
A: 6.25 µg/mL

Q: What about the “MIC” value [7] of the same substance?
A: 6.25 µg/mL

Q: And the “MIC (μg/mL) M. haemolytica” value [8]?
A: 25 µg/mL

Q: What about the “α helicity (%)” value [9] of the same substance?
A: 61%

Q: And the SYTOX entry [10]?
A: SYTOX was slow to enter

Q: And the “control of MRSA population on 3D epidermal tissue” value ([11]; 25 μg/ml after colonization, 16 h)?
A: prevented the expansion of the MRSA population

Q: What about the average bacterial density ([11]; tissues treated with 25 μg/mL (n=6), infected at 7×10^3 CFU/mL, untreated 9×10^7 CFU/mL) of the same substance?
A: 6×10^3 CFU/mL

Source: patent US12370235B2, “Synthetic, non-natural antimicrobial peptides inspired by Staphylococcus auricularis delta toxin” (University of Saskatchewan, priority 2021, dated 2025)
